Values quoted from earlier work as cited in PMC2552397 (Journal of medicinal chemistry, 2008).

Experiments:
GGPPS = target: T1, GGPPS (Homo sapiens, UniProt O95749); details: in words
T1 sequence (O95749 1-300): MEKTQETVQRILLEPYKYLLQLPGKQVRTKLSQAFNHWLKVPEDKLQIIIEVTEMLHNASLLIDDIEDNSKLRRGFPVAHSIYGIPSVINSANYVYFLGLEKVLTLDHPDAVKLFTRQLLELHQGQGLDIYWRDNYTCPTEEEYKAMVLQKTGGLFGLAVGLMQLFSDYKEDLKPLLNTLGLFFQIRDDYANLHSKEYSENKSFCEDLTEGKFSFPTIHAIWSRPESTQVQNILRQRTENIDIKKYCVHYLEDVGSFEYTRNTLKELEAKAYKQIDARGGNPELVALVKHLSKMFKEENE

K562 tumor cell line = details: in words

CCCCCCCCCC(O)(P(=O)(O)O)P(=O)(O)O [compound 4]
activity against GGPPS (GGPPS): quite potent activity

CC(C)=CCC/C(C)=C/CC(C/C=C(\C)CCC=C(C)C)(P(=O)(O)O)P(=O)(O)O [compound 5, digeranyl methylene bisphosphonate]
activity against GGPPS (GGPPS): potent activity | activity against a K562 tumor cell line (K562 tumor cell line): potent activity
